Measured values: patent US12241890B2, “Methods for generating barcoded nucleic acid molecules using fixed cells” (10X Genomics, Inc., priority 2019, dated 2025)
Entries after “also recorded” stand apart in the source; their conditions may differ.

How the values were obtained:
[1] = tested on: RNA treated with formaldehyde; conditions: Karmakar et al., Nature Chemistry 7: 752-758 (2015); cited from earlier work
PFA-fixed PBMCs = experiment: Bulk un-fixing of PFA-fixed PBMCs, bulk RNA isolation and bulk RNA sequencing (Example 1); format: cell-based; conditions: 4% PFA-fixed PBMCs, 50 mM un-fixing agent, 0.2% SDS, 10 mU/mL Proteinase K, 40° C. 2 h; for complexity of the transcriptomic library relative to no treatment of the fixed PBMCs (FIG. 8): estimated with Preseq
Description: Un-fixing agent solutions: the un-fixing agent of compounds (1), (4), (8), and (11) were each formulated in 30 mmol Tris buffer, pH 6.8 to a target concentration of 80 mM and the pH was adjusted to pH 6.5 using 2M NaOH. The final formulation was filtered through a 0.2 μm nylon syringe filter before addition into final composition of 50 mM of the un-fixing agent compound, 0.2% SDS, 10 mU/mL of Proteinase K and 0.2 U/mL RNAse inhibitor in 30 mM Tris, pH 6.8.
Bulk Un-fixing: PBMCs were fixed with 4% PFA for 24 h at 4° C. and quenched with 10% Fetal Bovine Serum (“FBS”) in PBS. The PFA-fixed PBMCs were treated with an un-fixing agent solution of compounds (1), (4), (8), or (11) formulated as described above at 40° C. for 2 h. Three different control samples also were prepared without un-fixing agent added: (1) fresh PBMCs (“Fresh Pellet” control); (2) PBMCs fixed with 4% PFA for 24 h then treated with 0.2% SDS, 10 mU/mL Proteinase K, and 0.2 U/mL RNAse inhibitor in 30 mM Tris, pH 6.8 at 40° C. for 2 h (“Fixed+PK, No UF agt.” control); and (3) PBMCs fixed with 4% PFA for 24 h (“fixed no un-fixing agent” control).
Bulk RNA isolation: After the bulk un-fixing treatment of the PFA-fixed PBMCs, the resulting treated (and control) samples were centrifuged at 450 g for 5 min and pellet as well as supernatant were collected. RNA isolation from collected pellets and supernatants was performed using RNeasy Plus Mini Kit (Qiagen, Cat #_74134) and RNeasy MinElute Cleanup Kit (Qiagen, Cat #74204), respectively. Isolated RNA was quantified using Qubit™ RNA HS Assay Kit (Invitrogen, Cat #Q32855) and Agilent RNA ScreenTape System (Agilent Technologies).
Bulk RNA sequencing: RNA could not be isolated from the “fixed no un-fixing agent” control sample. […] The “Fresh Pellet” control data was obtained by sequencing following bulk RNA isolation using the Qiagen kit without performing the 10× Genomics Single Cell 3′V3 protocol described below. For the four un-fixing agent treated samples and the remaining control samples described above, cDNA amplification was performed using an equivalent of 10 ng RNA. Post cDNA amplification, library prep was performed according to the 10× Genomics Single Cell 3′V3 protocol (10× Genomics, Pleasanton, CA, USA). A 3000-cell load of fresh PBMCs was used as a single cell reference (“Fresh SC3P”) and library prep was performed using Single Cell 3′V3 protocol (10× Genomics, Pleasanton, CA, USA). The final libraries were sequenced to between 25 and 100 million reads on a NovaSeq 6000 sequencer (Illumina Inc., San Diego, CA, USA). Bulk library complexity was estimated using the software package Preseq, as described by Daley and Smith (see e.g., Daley and Smith, “Predicting the molecular complexity of sequencing libraries,” Nature Methods 10:325-327, 2013). Library complexity as used here refers to the estimated number of unique RNA molecules aligned properly to the transcriptome (i.e., reads considered to be informative and used for gene expression counting) as a function of all sequenced reads. Gene expression counts were down-sampled across libraries to match the lowest sequencing depth and pairwise gene expression correlations were computed as the Pearson correlation (R^2) of gene expression counts between samples. When comparing gene expression data from control, unfixed PBMCs, gene expression counts were summed across cells to produce pseudo-bulk gene expression counts, as is customary in commercial gene expression analysis software (e.g., 10× Genomics, Pleasanton, CA, USA).

PFA-fixed Jurkats = experiment: Bulk un-fixing of PFA-fixed Jurkats with proline analog un-fixing agents and cold-active protease, RNA yield (Example 10); format: cell-based; conditions: 4% PFA-fixed Jurkats; 100 mM un-fixing agent, 10 U/mL ArcticZymes Proteinase where present; 14-25° C. 90 min then 80° C. 15 min
Description: B. Un-fixing agent stock solutions: the proline analog un-fixing agents of compounds (12), (13), (14), and (15) were each formulated in 50 mmol Tris buffer, pH 8.3 to a target concentration of 300 mM and the pH was adjusted to pH 8.3 using 2M NaOH. The final formulation was filtered through a 0.2 μm nylon syringe filter before addition into final composition of 100 mM of the un-fixing agent compound, 10 U/mL ArcticZymes Proteinase and 0.2 U/mL RNAse inhibitor in 50 mM Tris, pH 8.3.
C. Protease stock solution: A stock solution of 10 U/mL of the cold-active protease, ArcticZymes Proteinase (ArcticZymes Technologies ASA, Tromso, Norway) was stored at −20° C.
D. Bulk un-fixing/protease treatment of fixed cells: Jurkats were fixed with 4% PFA for 24 h at 4° C. and quenched with 10% Fetal Bovine Serum (“FBS”) in PBS. RNAse inhibitor was added to the fixed cell solution together with 10 U/mL of the cold-active protease, ArcticZymes Proteinase, 1 mM of the protease inhibitor, and 100 mM of one of each of the tested un-fixing agents: compound (8), (12), (13), (14), or (15). […]
E. Bulk RNA isolation: After the bulk un-fixing treatment of the PFA-fixed Jurkats, the resulting samples were centrifuged 5 minutes at 500 g, 4° C., and the supernatant and pellet fractions were collected separately. […] Isolated RNA was quantified using Qubit™ RNA HS Assay Kit (Invitrogen, Cat #Q32855).

Molecule | breakdown of aminal and hemi-aminal adducts in RNA treated with formaldehyde [1] | RNA recovery per read sequenced relative to fixed PBMCs treated only with proteinase K and SDS (PFA-fixed PBMCs) | transcriptomic mapping relative to fixed PBMC samples not treated with an un-fixing agent (FIG. 7) (PFA-fixed PBMCs) | complexity of the transcriptomic library relative to no treatment of the fixed PBMCs (FIG. 8) (PFA-fixed PBMCs) | recovery of RNA from the fixed biological sample (PFA-fixed PBMCs) | Pellet Avg. RNA yield (PFA-fixed Jurkats) | Supernatant Avg. RNA yield (PFA-fixed Jurkats)
Cc1ccc(N)c(P(=O)(O)O)c1 [(3), (2-amino-5-methylphenyl)phosphonic acid] | catalytically break down the aminal and hemi-aminal adducts |  |  |  |  |  | 
Cc1ccc(N)c(S(=O)(=O)O)c1 [(4), 2-amino-5-methylbenzenesulfonic acid] |  | increased RNA recovery per read sequenced | increased the transcriptomic mapping | higher complexity of the transcriptomic library |  |  | 
Cc1ccc(N)c(C(=O)O)c1 [Compound (1), 2-amino-5-methylbenzoic acid] |  | increased RNA recovery per read sequenced | increased the transcriptomic mapping | higher complexity of the transcriptomic library | highest recovery of RNA |  | 
Nc1ccncc1P(=O)(O)O [Compound (8), (4-aminopyridin-3-yl)phosphonic acid] |  |  | decreased the transcriptomic mapping | higher complexity of the transcriptomic library; also recorded: highest library complexity |  | 54 ng | 200 ng
(2-amino-5-{[2-(2-poly-ethoxy)ethyl]carbamoyl} phenyl)phosphonic acid [(11)] |  |  | decreased the transcriptomic mapping |  |  |  | 
